Columns and labels:
[1] = target: isolated smooth muscle myosin (UniProt P10587); type: biochemical, chamois; settings: concentration required for semi-maximal inhibition of ATPase
Description: (ii) the concentration required for semi-maximal inhibition.

[2] = target: T1, isolated porcine cardiac ventricular myocardium (cardiac) (Sus scrofa, UniProt P79293); assay: actomyosin steady state ATPase measurement, cardiac myosin; type: biochemical; settings: for IC50: concentration required for semi-maximal inhibition of ATPase; for % inhibition. complete cardiac: maximum value of inhibition of ATPase activity; for inhibition at 5 µM: read-out: % inhibition at 5 μM (or 10 μM if racemate) cardiac, 5 μM (10 μM if racemate); for inhibition at 5 µM / inhibition at 50 µM: ATPase activity; for inhibition at 50 µM: read-out: % inhibition at 50 μM (or 100 μM if racemate) cardiac, 50 μM (100 μM if racemate)
T1 construct: isolated porcine cardiac ventricular myocardium (cardiac); from tissue; host or cells: porcine cardiac ventricle
Description: (§1) […]; (ii) the concentration required for semi-maximal inhibition.

[3] = target: recombinant human non-muscle myosin 2 NM2C (Homo sapiens, UniProt Q7Z406); assay: actomyosin steady state ATPase measurement, NM2C; type: biochemical; settings: for IC50: concentration required for semi-maximal inhibition of ATPase; for % inhibition. complete NM2C: maximum value of inhibition of ATPase activity; for inhibition at 5 µM: read-out: % inhibition at 5 μM (or 10 μM if racemate) NM2C, 5 μM (10 μM if racemate); for inhibition at 5 µM / inhibition at 50 µM: ATPase activity; for inhibition at 50 µM: read-out: % inhibition at 50 μM (or 100 μM if racemate) NM2C, 50 μM (100 μM if racemate)
Description: as §1

[4] = target: isolated smooth muscle myosin (UniProt P10587); type: biochemical, chamois; settings: for % inhibition at 5 μM (or 10 μM if racemate) Smooth: 5 μM (10 μM if racemate); for % inhibition at 5 μM (or 10 μM if racemate) Smooth / % inhibition at 50 μM (or 100 μM if racemate) Smooth: ATPase activity; for % inhibition at 50 μM (or 100 μM if racemate) Smooth: 50 μM (100 μM if racemate); for % inhibition. complete Smooth: maximum value of inhibition of ATPase activity
[5] = system: isolated rabbit skeletal muscle myosin (skeletal); assay: actomyosin steady state ATPase measurement, skeletal muscle myosin; type: biochemical; settings: for % inhibition at 5 μM (or 10 μM if racemate) Skeletal: 5 μM (10 μM if racemate); for % inhibition at 5 μM (or 10 μM if racemate) Skeletal / % inhibition at 50 μM (or 100 μM if racemate) Skeletal: ATPase activity; for % inhibition at 50 μM (or 100 μM if racemate) Skeletal: 50 μM (100 μM if racemate); for IC50: concentration required for semi-maximal inhibition of ATPase; for % inhibition. complete Skeletal: maximum value of inhibition of ATPase activity
Description: as §1

[6] = target: recombinant Dictyostelium miozin (Dictyostelium) (Dictyostelium discoideum, UniProt P08799); assay: actomyosin steady state ATPase measurement, Dictyostelium myosin; type: biochemical; settings: for IC50: concentration required for semi-maximal inhibition of ATPase, read-out: IC50 (μM) Dicty; for % inhibition. complete Dicty: maximum value of inhibition of ATPase activity; for inhibition at 5 µM: read-out: % inhibition at 5 μM (or 10 μM if racemate) Dicty; for inhibition at 50 µM: read-out: % inhibition at 50 μM (or 100 μM if racemate) Dicty
Description: as §1

isolated smooth muscle myosin, sequence (P10587 whole entry): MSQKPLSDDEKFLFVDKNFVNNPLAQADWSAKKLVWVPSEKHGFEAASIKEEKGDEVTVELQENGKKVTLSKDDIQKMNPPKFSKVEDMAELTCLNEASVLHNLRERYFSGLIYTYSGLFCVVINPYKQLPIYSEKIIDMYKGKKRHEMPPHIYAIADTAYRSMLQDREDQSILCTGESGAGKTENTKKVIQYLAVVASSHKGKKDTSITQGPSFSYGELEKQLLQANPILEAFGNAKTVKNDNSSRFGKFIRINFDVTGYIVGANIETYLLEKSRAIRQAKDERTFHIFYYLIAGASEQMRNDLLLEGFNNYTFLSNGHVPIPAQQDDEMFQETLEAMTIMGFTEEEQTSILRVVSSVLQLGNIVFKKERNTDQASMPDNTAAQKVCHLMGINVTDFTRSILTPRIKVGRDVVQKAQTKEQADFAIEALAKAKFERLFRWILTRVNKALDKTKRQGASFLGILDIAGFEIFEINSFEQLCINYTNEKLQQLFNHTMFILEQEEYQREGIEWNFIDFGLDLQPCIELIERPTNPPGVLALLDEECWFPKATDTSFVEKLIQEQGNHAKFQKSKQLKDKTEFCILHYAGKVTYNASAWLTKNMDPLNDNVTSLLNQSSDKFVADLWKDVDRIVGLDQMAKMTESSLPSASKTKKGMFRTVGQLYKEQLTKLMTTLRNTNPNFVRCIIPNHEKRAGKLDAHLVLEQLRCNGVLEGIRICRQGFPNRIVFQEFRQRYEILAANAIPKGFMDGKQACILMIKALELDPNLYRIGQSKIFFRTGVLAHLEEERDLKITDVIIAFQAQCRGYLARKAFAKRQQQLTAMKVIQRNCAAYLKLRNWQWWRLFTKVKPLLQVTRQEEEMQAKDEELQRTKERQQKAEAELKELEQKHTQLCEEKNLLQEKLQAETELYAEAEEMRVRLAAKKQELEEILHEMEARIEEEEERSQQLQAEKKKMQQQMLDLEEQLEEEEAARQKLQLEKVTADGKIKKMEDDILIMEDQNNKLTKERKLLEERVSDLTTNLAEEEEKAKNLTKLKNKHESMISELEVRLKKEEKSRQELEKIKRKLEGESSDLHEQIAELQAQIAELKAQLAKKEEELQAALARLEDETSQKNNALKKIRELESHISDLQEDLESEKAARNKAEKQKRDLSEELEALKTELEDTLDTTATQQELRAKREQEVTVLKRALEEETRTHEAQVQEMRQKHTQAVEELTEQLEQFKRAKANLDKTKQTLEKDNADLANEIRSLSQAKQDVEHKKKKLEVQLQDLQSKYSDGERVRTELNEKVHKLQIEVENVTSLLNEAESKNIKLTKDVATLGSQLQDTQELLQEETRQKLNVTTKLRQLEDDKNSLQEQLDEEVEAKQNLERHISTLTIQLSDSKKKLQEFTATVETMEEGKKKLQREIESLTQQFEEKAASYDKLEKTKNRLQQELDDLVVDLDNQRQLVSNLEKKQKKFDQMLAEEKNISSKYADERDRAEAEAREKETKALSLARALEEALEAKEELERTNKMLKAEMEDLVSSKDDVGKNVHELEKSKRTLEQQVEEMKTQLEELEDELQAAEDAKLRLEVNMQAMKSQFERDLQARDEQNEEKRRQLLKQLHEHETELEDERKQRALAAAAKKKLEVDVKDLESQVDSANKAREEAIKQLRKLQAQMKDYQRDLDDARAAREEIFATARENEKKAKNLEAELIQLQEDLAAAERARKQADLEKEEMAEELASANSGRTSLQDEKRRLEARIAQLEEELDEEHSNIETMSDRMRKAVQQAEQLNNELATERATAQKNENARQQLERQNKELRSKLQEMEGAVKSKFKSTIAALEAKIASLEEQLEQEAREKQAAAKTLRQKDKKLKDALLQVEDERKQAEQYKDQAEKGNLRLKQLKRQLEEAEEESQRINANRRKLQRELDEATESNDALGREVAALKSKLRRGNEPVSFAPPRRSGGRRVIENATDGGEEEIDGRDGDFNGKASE
recombinant Dictyostelium miozin (Dictyostelium), sequence (P08799 whole entry): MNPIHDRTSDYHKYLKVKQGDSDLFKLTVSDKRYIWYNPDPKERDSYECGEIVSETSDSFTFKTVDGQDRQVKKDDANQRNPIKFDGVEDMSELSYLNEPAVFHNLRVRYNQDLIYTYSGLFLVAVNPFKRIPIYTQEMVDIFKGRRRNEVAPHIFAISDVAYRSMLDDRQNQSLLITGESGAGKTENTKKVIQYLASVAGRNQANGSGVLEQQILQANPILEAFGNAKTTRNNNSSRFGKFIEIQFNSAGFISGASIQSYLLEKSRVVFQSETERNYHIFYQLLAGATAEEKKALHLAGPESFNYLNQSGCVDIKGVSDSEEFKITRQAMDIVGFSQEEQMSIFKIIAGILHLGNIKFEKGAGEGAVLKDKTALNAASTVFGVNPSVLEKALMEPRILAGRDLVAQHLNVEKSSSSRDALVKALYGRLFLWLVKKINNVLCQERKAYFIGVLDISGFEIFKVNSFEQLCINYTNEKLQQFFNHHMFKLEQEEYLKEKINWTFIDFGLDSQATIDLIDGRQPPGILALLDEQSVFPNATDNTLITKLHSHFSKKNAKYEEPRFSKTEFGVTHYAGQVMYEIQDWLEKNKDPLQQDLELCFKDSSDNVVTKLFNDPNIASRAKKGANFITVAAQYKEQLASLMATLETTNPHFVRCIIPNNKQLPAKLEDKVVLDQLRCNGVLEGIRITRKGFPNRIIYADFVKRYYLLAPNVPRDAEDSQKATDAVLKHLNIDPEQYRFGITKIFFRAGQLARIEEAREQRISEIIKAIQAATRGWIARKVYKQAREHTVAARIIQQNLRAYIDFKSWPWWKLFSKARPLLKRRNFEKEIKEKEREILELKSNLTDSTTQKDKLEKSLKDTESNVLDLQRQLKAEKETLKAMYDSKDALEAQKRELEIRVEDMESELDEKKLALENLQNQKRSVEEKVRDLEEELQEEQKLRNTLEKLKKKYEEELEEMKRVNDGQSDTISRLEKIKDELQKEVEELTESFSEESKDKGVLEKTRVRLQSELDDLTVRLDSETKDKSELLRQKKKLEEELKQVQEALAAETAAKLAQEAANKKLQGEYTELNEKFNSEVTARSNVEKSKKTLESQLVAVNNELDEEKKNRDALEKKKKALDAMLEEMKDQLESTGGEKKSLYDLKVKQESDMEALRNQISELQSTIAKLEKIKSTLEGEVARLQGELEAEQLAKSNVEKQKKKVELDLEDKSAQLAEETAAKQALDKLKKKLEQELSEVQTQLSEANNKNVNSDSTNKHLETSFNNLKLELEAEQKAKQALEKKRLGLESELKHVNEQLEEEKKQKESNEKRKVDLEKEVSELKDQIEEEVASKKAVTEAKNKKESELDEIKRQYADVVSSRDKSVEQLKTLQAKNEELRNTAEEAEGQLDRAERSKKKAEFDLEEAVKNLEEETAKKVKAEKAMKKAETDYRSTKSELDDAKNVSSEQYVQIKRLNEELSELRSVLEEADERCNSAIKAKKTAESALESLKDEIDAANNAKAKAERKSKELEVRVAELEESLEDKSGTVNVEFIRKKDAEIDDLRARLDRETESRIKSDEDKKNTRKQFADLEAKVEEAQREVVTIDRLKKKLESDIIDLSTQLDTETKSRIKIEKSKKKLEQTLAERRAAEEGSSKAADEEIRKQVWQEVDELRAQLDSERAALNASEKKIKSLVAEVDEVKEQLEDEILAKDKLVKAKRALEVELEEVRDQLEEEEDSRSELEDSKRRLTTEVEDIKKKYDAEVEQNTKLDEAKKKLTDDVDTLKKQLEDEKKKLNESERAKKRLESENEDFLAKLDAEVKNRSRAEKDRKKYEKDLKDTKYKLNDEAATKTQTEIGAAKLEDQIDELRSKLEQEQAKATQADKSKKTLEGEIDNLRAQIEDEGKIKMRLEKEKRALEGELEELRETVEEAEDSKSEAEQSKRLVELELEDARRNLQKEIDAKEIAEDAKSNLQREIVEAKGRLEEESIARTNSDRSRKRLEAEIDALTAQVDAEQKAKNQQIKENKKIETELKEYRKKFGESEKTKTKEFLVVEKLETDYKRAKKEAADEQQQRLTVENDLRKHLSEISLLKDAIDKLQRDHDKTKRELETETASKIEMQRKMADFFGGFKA

| SMILES | IC50 [1] [µM] | IC50 [2] [µM] | % inhibition. complete cardiac [2] [%] | inhibition at 5 µM [2] [%] | inhibition at 50 µM [2] [%] | IC50 [3] [µM] | % inhibition. complete NM2C [3] [%] | inhibition at 5 µM [3] [%] | inhibition at 50 µM [3] [%] | % inhibition at 5 μM (or 10 μM if racemate) Smooth [4] [%] | % inhibition at 50 μM (or 100 μM if racemate) Smooth [4] [%] | % inhibition. complete Smooth [4] [%] | % inhibition at 5 μM (or 10 μM if racemate) Skeletal [5] [%] | % inhibition at 50 μM (or 100 μM if racemate) Skeletal [5] [%] | IC50 [5] [µM] | % inhibition. complete Skeletal [5] [%] | IC50 [6] [µM] | % inhibition. complete Dicty [6] [%] | inhibition at 5 µM [6] [%] | inhibition at 50 µM [6] [%] | other results |
| --- | --- | --- | --- | --- | --- | --- | --- | --- | --- | --- | --- | --- | --- | --- | --- | --- | --- | --- | --- | --- | --- |
| O=C1c2ccsc2N=C2N(c3ccc(OC(F)(F)F)cc3)CC[C@@]12O [Compound 212, (9S)-9-hydroxy-12-[4-(trifluoromethoxy)phenyl]-4-thia-2,12-diazatricyclo[7.3.0.0^3,7]dodeca-1,3(7),5-trien-8-one] | 10.4 | 5.9 | 100 | 43 | 93 | 6.4 | 61 | 19 | 56 | 24 | 61 | 74 | 94 | 97 | 0.19 | 98 | 10.9 | 84 | 26 | 69 | Inhibition (%) Dicty ([6]; maximum inhibition, compounds in IC50 range 1-11 μM): 84% |
| N#CCc1ccc(N2CC[C@@]3(O)C(=O)c4ccsc4N=C23)cc1 [Compound 215, (9S)-2-(4-{9-Hydroxy-8-oxo-4-thia-2,12-diazatricyclo[7.3.0.0^3,7]dodeca-1,3(7),5-trien-12-yl}phenyl)acetonitrile] | 2.3 | 5.6 | 94 | 42 | 84 | 19 | 77 | 16 | 56 | 31 | 45 | 47 | 80 | 96 | 1.1 | 98 | 12.1 | 78 | 23 | 63 | Inhibition (%) smooth ([4]; maximum inhibition, compounds in IC50 range 1-5 μM): 47% |
| O=C1c2ccsc2N=C2N(c3ccc(CO)cc3)CC[C@@]12O [Compound 216, (9S)-9-Hydroxy-12-[4-(hydroxymethyl)phenyl]-4-thia-2,12-diazatricyclo[7.3.0.0^3,7]dodeca-1,3(7),5-trien-8-one] | 8.3 | 2.4 | 89 | 58 | 85 | 23 | 75 | 13 | 51 | 17 | 39 | 46 | 74 | 95 | 1.6 | 98 | 13.3 | 74 | 20 | 58 | Inhibition (%) skeletal ([5]; maximum inhibition, compounds in IC50 range 1-2 μM): 98% |
| O=C1c2ccsc2N=C2N(c3cccs3)CC[C@@]12O [Compound 218, (9S)-9-Hydroxy-12-(thiophen-2-yl)-4-thia-2,12-diazatricyclo[7.3.0.0^3,7]dodeca-1,3(7),5-trien-8-one] | 8.1 | 2.7 | 79 | 49 | 75 | 44 | 20 | 2 | 11 | 10 | 24 | 28 | 50 | 85 | 4.2 | 92 | 78 | 100 | 4 | 39 | – |
